Source: ChEMBL document CHEMBL5325470, “Design, synthesis and mechanism studies of dual EZH2/BRD4 inhibitors for cancer therapy” (Bioorg Med Chem, 2023)
Active and inactive are the calls of the source. The rule behind the calls is not given here.

Key:
[1] = molecular target: Bromodomain-containing protein 4 (Homo sapiens, UniProt O60885); assay: Inhibition of BRD4 BD1 (unknown origin) incubated for 15 mins by TR-FRET method
[2] = test system: HCT-116; assay: Antiproliferative activity against human HCT-116 cells incubated for 72 hrs by MTT assay; type: functional, cell-based; conditions: HCT-116, 72 h
[3] = test system: A549; assay: Antiproliferative activity against human A549 cells incubated for 72 hrs by MTT assay; type: functional, cell-based; conditions: A549, 72 h
[4] = test system: BT-549; assay: Antiproliferative activity against human BT-549 cells incubated for 72 hrs by MTT assay; type: functional, cell-based; conditions: BT-549, 72 h
[5] = test system: MDA-MB-231; assay: Antiproliferative activity against human MDA-MB-231 cells incubated for 72 hrs by MTT assay; type: functional, cell-based; conditions: MDA-MB-231, 72 h
[6] = Binding affinity to recombinant PRC2 complex (unknown origin) incubated for 3 hrs in presence of SAM; set-up: species or system Homo sapiens
[7] = test system: HCT-116; assay: Synergistic antiproliferative activity against human HCT-116 cells at JQ1 and compound 1:1 ratio incubated for 72 hrs by MTT assay; type: functional, cell-based; conditions: HCT-116, 72 h
[8] = test system: BT-549; assay: Synergistic antiproliferative activity against human BT-549 cells at JQ1 and compound 1:1 ratio incubated for 72 hrs by MTT assay; type: functional, cell-based; conditions: BT-549, 72 h
[9] = molecular target: T1, Histone-lysine N-methyltransferase EZH2 (Homo sapiens, UniProt Q15910); assay: Inhibition of EZH2 in human A549 cells assessed as decrease in H3K27ac level at 2 to 8 uM incubated for 48 hrs by Western blotting analysis; type: cell-based; conditions: dose 2-8 µM
[10] = molecular target: T1, Histone-lysine N-methyltransferase EZH2; assay: Inhibition of EZH2 in human HCT-116 cells assessed as decrease in H3K27ac level at 2 to 8 uM incubated for 48 hrs by Western blotting analysis; type: cell-based; conditions: dose 2-8 µM
[11] = test system: MDA-MB-231; assay: Synergistic antiproliferative activity against human MDA-MB-231 cells at JQ1 and compound 1:1 ratio incubated for 72 hrs by MTT assay; type: functional, cell-based; conditions: MDA-MB-231, 72 h
[12] = test system: A549; assay: Synergistic antiproliferative activity against human A549 cells at JQ1 and compound 1:1 ratio incubated for 72 hrs by MTT assay; type: functional, cell-based; conditions: A549, 72 h
[13] = molecular target: T1, Histone-lysine N-methyltransferase EZH2; assay: Inhibition of EZH2 in human MDA-MB-231 cells assessed as decrease in H3K27ac level at 2 to 8 uM incubated for 48 hrs by Western blotting analysis; type: cell-based; conditions: dose 2-8 µM

T1 sequence (Q15910 whole entry, looked up): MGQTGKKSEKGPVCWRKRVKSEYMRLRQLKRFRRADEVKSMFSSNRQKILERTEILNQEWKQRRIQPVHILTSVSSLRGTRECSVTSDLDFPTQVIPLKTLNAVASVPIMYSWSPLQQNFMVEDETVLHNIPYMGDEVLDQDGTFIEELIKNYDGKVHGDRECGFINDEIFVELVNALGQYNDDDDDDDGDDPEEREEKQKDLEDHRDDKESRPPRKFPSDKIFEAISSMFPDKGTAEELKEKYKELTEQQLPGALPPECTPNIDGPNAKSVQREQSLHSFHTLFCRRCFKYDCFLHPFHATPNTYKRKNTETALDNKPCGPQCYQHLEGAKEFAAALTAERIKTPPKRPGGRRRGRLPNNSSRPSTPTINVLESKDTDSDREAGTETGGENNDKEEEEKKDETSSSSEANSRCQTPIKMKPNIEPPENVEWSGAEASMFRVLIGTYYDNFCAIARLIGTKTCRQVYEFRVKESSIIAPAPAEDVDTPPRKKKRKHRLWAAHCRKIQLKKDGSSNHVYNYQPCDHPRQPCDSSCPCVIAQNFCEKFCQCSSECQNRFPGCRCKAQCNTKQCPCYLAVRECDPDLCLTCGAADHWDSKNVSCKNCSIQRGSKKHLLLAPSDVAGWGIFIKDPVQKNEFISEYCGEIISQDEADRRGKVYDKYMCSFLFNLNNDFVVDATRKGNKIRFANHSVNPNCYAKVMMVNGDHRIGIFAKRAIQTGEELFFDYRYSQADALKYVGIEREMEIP

SMILES	IC50 [1] [µM]	IC50 [2] [µM]	IC50 [3] [µM]	IC50 [4] [µM]	IC50 [5] [µM]	Kd [6] [µM]	IC50 [7] [µM]	IC50 [8] [µM]	inhibition [9]	inhibition [10]	IC50 [11] [µM]	IC50 [12] [µM]	inhibition [13]
Cc1cc(C)c(CNC(=O)c2cc(-c3ccc(NC(=O)C[C@@H]4N=C(c5ccc(Cl)cc5)c5c(sc(C)c5C)-n5c(C)nnc54)cc3)cc3c2cnn3C(C)C)c(=O)[nH]1	> 20	> 20	> 20	> 20	> 20	–	–	–	–	–	–	–	–
Cc1cc(C)c(CNC(=O)c2cc(-c3ccc(N4CCN(C(=O)C[C@@H]5N=C(c6ccc(Cl)cc6)c6c(sc(C)c6C)-n6c(C)nnc65)CC4)cc3)cc3c2cnn3C(C)C)c(=O)[nH]1	–	17.8	> 20	> 20	> 20	–	–	–	–	–	–	–	–
Cc1cc(C)c(CNC(=O)c2cc(-c3ccc(NC(=O)CCCCNC(=O)C[C@@H]4N=C(c5ccc(Cl)cc5)c5c(sc(C)c5C)-n5c(C)nnc54)cc3)cc3c2cnn3C(C)C)c(=O)[nH]1	0.055	6.27	> 20	10.4	2.21	0.682	–	–	–	–	–	–	–
Cc1cc(C)c(CNC(=O)c2cc(-c3ccc(N4CCN(C(=O)C[C@@H]5N=C(c6ccc(Cl)cc6)c6c(sc(C)c6C)-n6c(C)nnc65)CC4)nc3)cc3c2cnn3C)c(=O)[nH]1	–	> 20	> 20	5.13	11.8	–	–	–	–	–	–	–	–
Cc1cc(C)c(CNC(=O)c2cc(N3CCC4(CCN(C(=O)C[C@@H]5N=C(c6ccc(Cl)cc6)c6c(sc(C)c6C)-n6c(C)nnc65)C4)CC3)cc3c2cnn3C(C)C)c(=O)[nH]1	–	2.23	17.3	3.64	2.87	–	–	–	–	–	–	–	–
Cc1cc(C)c(CNC(=O)c2cc(NC3CCN(C(=O)C[C@@H]4N=C(c5ccc(Cl)cc5)c5c(sc(C)c5C)-n5c(C)nnc54)CC3)cc3c2cnn3C(C)C)c(=O)[nH]1	–	4.28	> 20	3.91	8.09	–	–	–	–	–	–	–	–
CCC(C)n1ncc2c(C(=O)NCc3c(C)cc(C)[nH]c3=O)cc(-c3ccc(N4CCN(C(=O)C[C@@H]5N=C(c6ccc(Cl)cc6)c6c(sc(C)c6C)-n6c(C)nnc65)CC4)nc3)cc21 (some centres undefined)	–	> 20	> 20	> 20	> 20	–	–	–	–	–	–	–	–
Cc1cc(C)c(CNC(=O)c2cc(-c3ccc(N4CCN(C(=O)C[C@@H]5N=C(c6ccc(Cl)cc6)c6c(sc(C)c6C)-n6c(C)nnc65)CC4)nc3)cc3c2cnn3C(C)C)c(=O)[nH]1	–	2.3	> 20	3.4	> 20	–	–	–	–	–	–	–	–
CCn1ncc2c(C(=O)NCc3c(C)cc(C)[nH]c3=O)cc(-c3ccc(N4CCN(C(=O)C[C@@H]5N=C(c6ccc(Cl)cc6)c6c(sc(C)c6C)-n6c(C)nnc65)CC4)nc3)cc21	–	6.68	> 20	3.51	> 20	–	–	–	–	–	–	–	–
Cc1cc(C)c(CNC(=O)c2cc(NCCCCCCNC(=O)C[C@@H]3N=C(c4ccc(Cl)cc4)c4c(sc(C)c4C)-n4c(C)nnc43)cc3c2cnn3C(C)C)c(=O)[nH]1	0.138	1.9	9.2	4.99	3.23	0.19	–	–	–	–	–	–	–
Cc1cc(C)c(CNC(=O)c2cc(N3CCN(C(=O)C[C@@H]4N=C(c5ccc(Cl)cc5)c5c(sc(C)c5C)-n5c(C)nnc54)CC3)cc3c2cnn3C(C)C)c(=O)[nH]1	–	> 20	> 20	3.87	10.9	–	–	–	–	–	–	–	–
Cc1cc(C)c(CNC(=O)c2cc(-c3ccc(NC(=O)CNC(=O)C[C@@H]4N=C(c5ccc(Cl)cc5)c5c(sc(C)c5C)-n5c(C)nnc54)cc3)cc3c2cnn3C(C)C)c(=O)[nH]1	0.138	2.9	> 20	10.8	1.24	–	–	–	–	–	–	–	–
CC[C@@H](C)n1cc(C)c2c(C(=O)NCc3c(C)cc(C)[nH]c3=O)cc(-c3ccc(N4CCNCC4)nc3)cc21	–	12.9	18.6	9.23	11.7	0.0891	1.76	2.05	inactive	inactive	2.6	4.34	inactive
Cc1cc(C)c(CNC(=O)c2cc(-c3ccc(NC(=O)CCNC(=O)C[C@@H]4N=C(c5ccc(Cl)cc5)c5c(sc(C)c5C)-n5c(C)nnc54)cc3)cc3c2cnn3C(C)C)c(=O)[nH]1	0.124	> 20	> 20	> 20	6.16	0.464	–	–	–	–	–	–	–
Cc1cc(C)c(CNC(=O)c2cc(NCCCNC(=O)C[C@@H]3N=C(c4ccc(Cl)cc4)c4c(sc(C)c4C)-n4c(C)nnc43)cc3c2cnn3C(C)C)c(=O)[nH]1	0.206	> 20	> 20	11.5	15.4	–	–	–	–	–	–	–	–
Cc1cc(C)c(CNC(=O)c2cc(NCC3CCN(C(=O)C[C@@H]4N=C(c5ccc(Cl)cc5)c5c(sc(C)c5C)-n5c(C)nnc54)CC3)cc3c2cnn3C(C)C)c(=O)[nH]1	–	2.18	4.58	2.12	3.11	–	–	–	–	–	–	–	–
Cc1sc2c(c1C)C(c1ccc(Cl)cc1)=N[C@@H](CC(=O)OC(C)(C)C)c1nnc(C)n1-2	–	3.07	18.3	3.89	6.17	–	–	–	–	–	–	–	–
CCCc1cc(C)[nH]c(=O)c1CNC(=O)c1cc(-c2ccc(N3CCN(C(=O)C[C@@H]4N=C(c5ccc(Cl)cc5)c5c(sc(C)c5C)-n5c(C)nnc54)CC3)nc2)cc2c1cnn2C(C)C	–	> 20	> 20	> 20	> 20	–	–	–	–	–	–	–	–
Cc1cc(C)c(CNC(=O)c2cc(-c3ccc(N4CCN(C(C)C)CC4)nc3)cc3c2cnn3C(C)C)c(=O)[nH]1	–	16.9	16.1	15.1	11.7	–	0.92	4.73	–	–	1.1	7.48	–
Cc1cc(C)c(CNC(=O)c2cc(NCCCCNC(=O)C[C@@H]3N=C(c4ccc(Cl)cc4)c4c(sc(C)c4C)-n4c(C)nnc43)cc3c2cnn3C(C)C)c(=O)[nH]1	0.216	10.2	> 20	9.57	13.5	–	–	–	–	–	–	–	–
Cc1cc(C)c(CNC(=O)c2cc(N3CCC(CNC(=O)C[C@@H]4N=C(c5ccc(Cl)cc5)c5c(sc(C)c5C)-n5c(C)nnc54)CC3)cc3c2cnn3C(C)C)c(=O)[nH]1	0.353	5.61	8.93	3.2	2.07	0.133	–	–	–	–	–	–	–
Cc1cc(C)c(CNC(=O)c2cc(-c3ccc(NC(=O)CCCNC(=O)C[C@@H]4N=C(c5ccc(Cl)cc5)c5c(sc(C)c5C)-n5c(C)nnc54)cc3)cc3c2cnn3C(C)C)c(=O)[nH]1	0.137	> 20	> 20	> 20	7.54	0.376	–	–	–	–	–	–	–
Cc1cc(C)c(CNC(=O)c2cc(-c3ccc(CNC(=O)C[C@@H]4N=C(c5ccc(Cl)cc5)c5c(sc(C)c5C)-n5c(C)nnc54)cc3)cc3c2cnn3C(C)C)c(=O)[nH]1	0.259	11.5	> 20	12.2	3.14	–	–	–	–	–	–	–	–
